According to ChEMBL document CHEMBL3044945, “Synthesis of 1,3,5-trisubstituted pyrazoline nucleus containing compounds and screening for antimicrobial activity” (2012):
Values after ≈ are worked out from the molar mass of the structure shown.

What was measured:
Format in all cases: functional
[1] = tested on: Bacillus subtilis; assay: Antibacterial activity against Bacillus subtilis MTCC 441 at 1250 ug/ml after 48 hr by cup-plate method; conditions: MTCC 441, 48 h, read-out: DIZ
[2] = tested on: Bacillus subtilis; assay: Antibacterial activity against Bacillus subtilis MTCC 441 at 1000 ug/ml after 48 hr by cup-plate method; conditions: MTCC 441, 48 h, read-out: DIZ
[3] = tested on: Bacillus subtilis; assay: Antibacterial activity against Bacillus subtilis MTCC 441 at 750 ug/ml after 48 hr by cup-plate method; conditions: MTCC 441, 48 h, read-out: DIZ
[4] = tested on: Bacillus subtilis; assay: Antibacterial activity against Bacillus subtilis MTCC 441 at 100 ug/ml after 48 hr by cup-plate method; conditions: MTCC 441, 48 h, read-out: DIZ
[5] = tested on: Penicillium chrysogenum; assay: Antifungal activity against Penicillium chrysogenum MTCC 161 after 24 to 48 hr by tube dilution method
[6] = tested on: Aspergillus niger; assay: Antifungal activity against Aspergillus niger MTCC 2546 after 24 to 48 hr by tube dilution method
[7] = tested on: Pseudomonas fluorescens; assay: Antibacterial activity against Pseudomonas fluorescens MTCC 2421 after 24 to 48 hr by tube dilution method
[8] = tested on: Bacillus pumilus; assay: Antibacterial activity against Bacillus pumilus MTCC 1456 after 24 to 48 hr by tube dilution method
[9] = tested on: Pseudomonas aeruginosa; assay: Antibacterial activity against Pseudomonas aeruginosa MTCC 424 after 24 to 48 hr by tube dilution method
[10] = tested on: Staphylococcus aureus; assay: Antibacterial activity against Staphylococcus aureus MTCC 1430 after 24 to 48 hr by tube dilution method
[11] = tested on: Bacillus subtilis; assay: Antibacterial activity against Bacillus subtilis MTCC 441 after 24 to 48 hr by tube dilution method
[12] = tested on: Penicillium chrysogenum; assay: Antifungal activity against Penicillium chrysogenum MTCC 161 at 1250 ug/ml after 48 hr by cup-plate method; conditions: MTCC 161, 48 h, read-out: DIZ
[13] = tested on: Penicillium chrysogenum; assay: Antifungal activity against Penicillium chrysogenum MTCC 161 at 1000 ug/ml after 48 hr by cup-plate method; conditions: MTCC 161, 48 h, read-out: DIZ
[14] = tested on: Penicillium chrysogenum; assay: Antifungal activity against Penicillium chrysogenum MTCC 161 at 500 ug/ml after 48 hr by cup-plate method; conditions: MTCC 161, 48 h, read-out: DIZ
[15] = tested on: Penicillium chrysogenum; assay: Antifungal activity against Penicillium chrysogenum MTCC 161 at 250 ug/ml after 48 hr by cup-plate method; conditions: MTCC 161, 48 h, read-out: DIZ
[16] = tested on: Penicillium chrysogenum; assay: Antifungal activity against Penicillium chrysogenum MTCC 161 at 100 ug/ml after 48 hr by cup-plate method; conditions: MTCC 161, 48 h, read-out: DIZ
[17] = tested on: Aspergillus niger; assay: Antifungal activity against Aspergillus niger MTCC 2546 at 1250 ug/ml after 48 hr by cup-plate method; conditions: MTCC 2546, 48 h, read-out: DIZ
[18] = tested on: Aspergillus niger; assay: Antifungal activity against Aspergillus niger MTCC 2546 at 1000 ug/ml after 48 hr by cup-plate method; conditions: MTCC 2546, 48 h, read-out: DIZ
[19] = tested on: Aspergillus niger; assay: Antifungal activity against Aspergillus niger MTCC 2546 at 100 ug/ml after 48 hr by cup-plate method; conditions: MTCC 2546, 48 h, read-out: DIZ
[20] = tested on: Pseudomonas fluorescens; assay: Antibacterial activity against Pseudomonas fluorescens MTCC 2421 at 1250 ug/ml after 48 hr by cup-plate method; conditions: MTCC 2421, 48 h, read-out: DIZ
[21] = tested on: Pseudomonas fluorescens; assay: Antibacterial activity against Pseudomonas fluorescens MTCC 2421 at 1000 ug/ml after 48 hr by cup-plate method; conditions: MTCC 2421, 48 h, read-out: DIZ
[22] = tested on: Pseudomonas fluorescens; assay: Antibacterial activity against Pseudomonas fluorescens MTCC 2421 at 750 ug/ml after 48 hr by cup-plate method; conditions: MTCC 2421, 48 h, read-out: DIZ
[23] = tested on: Pseudomonas fluorescens; assay: Antibacterial activity against Pseudomonas fluorescens MTCC 2421 at 500 ug/ml after 48 hr by cup-plate method; conditions: MTCC 2421, 48 h, read-out: DIZ
[24] = tested on: Pseudomonas fluorescens; assay: Antibacterial activity against Pseudomonas fluorescens MTCC 2421 at 250 ug/ml after 48 hr by cup-plate method; conditions: MTCC 2421, 48 h, read-out: DIZ
[25] = tested on: Pseudomonas fluorescens; assay: Antibacterial activity against Pseudomonas fluorescens MTCC 2421 at 100 ug/ml after 48 hr by cup-plate method; conditions: MTCC 2421, 48 h, read-out: DIZ
[26] = tested on: Escherichia coli; assay: Antibacterial activity against Escherichia coli MTCC 1573 at 1250 ug/ml after 48 hr by cup-plate method; conditions: MTCC 1573, 48 h, read-out: DIZ
[27] = tested on: Escherichia coli; assay: Antibacterial activity against Escherichia coli MTCC 1573 at 1000 ug/ml after 48 hr by cup-plate method; conditions: MTCC 1573, 48 h, read-out: DIZ
[28] = tested on: Escherichia coli; assay: Antibacterial activity against Escherichia coli MTCC 1573 at 750 ug/ml after 48 hr by cup-plate method; conditions: MTCC 1573, 48 h, read-out: DIZ
[29] = tested on: Micrococcus luteus; assay: Antibacterial activity against Micrococcus luteus MTCC 1538 at 1000 ug/ml after 48 hr by cup-plate method; conditions: MTCC 1538, 48 h, read-out: DIZ
[30] = tested on: Micrococcus luteus; assay: Antibacterial activity against Micrococcus luteus MTCC 1538 at 750 ug/ml after 48 hr by cup-plate method; conditions: MTCC 1538, 48 h, read-out: DIZ
[31] = tested on: Escherichia coli; assay: Antibacterial activity against Escherichia coli MTCC 1573 at 500 ug/ml after 48 hr by cup-plate method; conditions: MTCC 1573, 48 h, read-out: DIZ
[32] = tested on: Escherichia coli; assay: Antibacterial activity against Escherichia coli MTCC 1573 at 100 ug/ml after 48 hr by cup-plate method; conditions: MTCC 1573, 48 h, read-out: DIZ
[33] = tested on: Escherichia coli; assay: Antibacterial activity against Escherichia coli MTCC 1573 at 250 ug/ml after 48 hr by cup-plate method; conditions: MTCC 1573, 48 h, read-out: DIZ
[34] = tested on: Micrococcus luteus; assay: Antibacterial activity against Micrococcus luteus MTCC 1538 at 1250 ug/ml after 48 hr by cup-plate method; conditions: MTCC 1538, 48 h, read-out: DIZ
[35] = tested on: Micrococcus luteus; assay: Antibacterial activity against Micrococcus luteus MTCC 1538 at 500 ug/ml after 48 hr by cup-plate method; conditions: MTCC 1538, 48 h, read-out: DIZ
[36] = tested on: Micrococcus luteus; assay: Antibacterial activity against Micrococcus luteus MTCC 1538 at 250 ug/ml after 48 hr by cup-plate method; conditions: MTCC 1538, 48 h, read-out: DIZ
[37] = tested on: Bacillus pumilus; assay: Antibacterial activity against Bacillus pumilus MTCC 1456 at 750 ug/ml after 48 hr by cup-plate method; conditions: MTCC 1456, 48 h, read-out: DIZ
[38] = tested on: Bacillus pumilus; assay: Antibacterial activity against Bacillus pumilus MTCC 1456 at 500 ug/ml after 48 hr by cup-plate method; conditions: MTCC 1456, 48 h, read-out: DIZ
[39] = tested on: Bacillus pumilus; assay: Antibacterial activity against Bacillus pumilus MTCC 1456 at 250 ug/ml after 48 hr by cup-plate method; conditions: MTCC 1456, 48 h, read-out: DIZ
[40] = tested on: Staphylococcus aureus; assay: Antibacterial activity against Staphylococcus aureus MTCC 1430 at 1000 ug/ml after 48 hr by cup-plate method; conditions: MTCC 1430, 48 h, read-out: DIZ
[41] = tested on: Staphylococcus aureus; assay: Antibacterial activity against Staphylococcus aureus MTCC 1430 at 500 ug/ml after 48 hr by cup-plate method; conditions: MTCC 1430, 48 h, read-out: DIZ
[42] = tested on: Pseudomonas aeruginosa; assay: Antibacterial activity against Pseudomonas aeruginosa MTCC 424 at 1250 ug/ml after 48 hr by cup-plate method; conditions: MTCC 424, 48 h, read-out: DIZ
[43] = tested on: Pseudomonas aeruginosa; assay: Antibacterial activity against Pseudomonas aeruginosa MTCC 424 at 1000 ug/ml after 48 hr by cup-plate method; conditions: MTCC 424, 48 h, read-out: DIZ
[44] = tested on: Pseudomonas aeruginosa; assay: Antibacterial activity against Pseudomonas aeruginosa MTCC 424 at 750 ug/ml after 48 hr by cup-plate method; conditions: MTCC 424, 48 h, read-out: DIZ

O=[N+]([O-])c1ccc(C2CC(c3cccc4ccccc34)=NN2c2ccc([N+](=O)[O-])cc2)cc1 (centres undefined)
zone of inhibition at 1250 µg/mL [1]: 19 mm | zone of inhibition at 1000 µg/mL [2]: 17 mm | zone of inhibition at 750 µg/mL [3]: 15 mm | zone of inhibition at 100 µg/mL [4]: 11 mm | MIC [5]: 50 µg/mL (≈ 114 µM) | MIC [6]: 30 µg/mL (≈ 68.4 µM) | MIC [7]: 30 µg/mL (≈ 68.4 µM) | MIC [8]: 50 µg/mL (≈ 114 µM) | MIC [9]: 30 µg/mL (≈ 68.4 µM) | MIC [10]: 200 µg/mL (≈ 456 µM) | MIC [11]: 50 µg/mL (≈ 114 µM) | zone of inhibition at 1250 µg/mL [12]: 17 mm | zone of inhibition at 1000 µg/mL [13]: 15 mm | zone of inhibition at 500 µg/mL [14]: 12 mm | zone of inhibition at 250 µg/mL [15]: 10 mm | zone of inhibition at 100 µg/mL [16]: 9 mm | zone of inhibition at 1250 µg/mL [17]: 25 mm | zone of inhibition at 1000 µg/mL [18]: 20 mm | zone of inhibition at 100 µg/mL [19]: 12 mm | zone of inhibition at 1250 µg/mL [20]: 21 mm | zone of inhibition at 1000 µg/mL [21]: 18 mm | zone of inhibition at 750 µg/mL [22]: 14 mm | zone of inhibition at 500 µg/mL [23]: 11 mm | zone of inhibition at 250 µg/mL [24]: 10 mm | zone of inhibition at 100 µg/mL [25]: 9 mm | zone of inhibition at 1250 µg/mL [26]: 17 mm | zone of inhibition at 1000 µg/mL [27]: 15 mm | zone of inhibition at 750 µg/mL [28]: 13 mm | zone of inhibition at 1000 µg/mL [29]: 13 mm | zone of inhibition at 750 µg/mL [30]: 12 mm | zone of inhibition at 500 µg/mL [31]: 12 mm | zone of inhibition at 100 µg/mL [32]: 10 mm | zone of inhibition at 250 µg/mL [33]: 11 mm | zone of inhibition at 1250 µg/mL [34]: 15 mm | zone of inhibition at 500 µg/mL [35]: 11 mm | zone of inhibition at 250 µg/mL [36]: 9 mm | zone of inhibition at 750 µg/mL [37]: 15 mm | zone of inhibition at 500 µg/mL [38]: 10 mm | zone of inhibition at 250 µg/mL [39]: 8 mm | zone of inhibition at 1000 µg/mL [40]: 12 mm | zone of inhibition at 500 µg/mL [41]: 10 mm | zone of inhibition at 1250 µg/mL [42]: 19 mm | zone of inhibition at 1000 µg/mL [43]: 16 mm | zone of inhibition at 750 µg/mL [44]: 13 mm
